Results taken from patent US4452851A, “Cephem compounds” (Fujisawa Pharmaceutical Co., Ltd., priority 1981, dated 1984).
Converted amounts (≈) assume the structure as drawn.

Legend:
[1] = tested on: Escherichia coli NIHJ JC-2; experiment: Minimal inhibitory concentration, two-fold agar-plate dilution method; type: cell-based; conditions: NIHJJC2, HI-agar, 37° C., 20 hours
Protocol: (§1) In vitro antibacterial activity was determined by the two-fold agar-plate dilution method as described below. One loopful of an overnight culture of each test strain in Trypticase-soy broth (10^8 viable cells per ml) was streaked on heart infusion agar (HI-agar) containing graded concentrations of representative test compound, and the minimal inhibitory concentration (MIC) was expressed in terms of μg/ml after incubation at 37° C. for 20 hours.

[2] = tested on: Proteus vulgaris IAM-1025; experiment: as above; type: cell-based; conditions: IAM1025, HI-agar, 37° C., 20 hours
Protocol: as §1

Proteus mirabilis 18 = experiment: as above; type: cell-based; conditions: HI-agar, 37° C., 20 hours
Protocol: as §1

Escherichia coli 31 = experiment: as above; type: cell-based; conditions: HI-agar, 37° C., 20 hours
Protocol: as §1

Klebsiella pneumoniae 20 = experiment: as above; type: cell-based; conditions: HI-agar, 37° C., 20 hours
Protocol: as §1

[3] = Urinary excretion in rats after oral administration; type: in vivo; conditions: rat, 100 mg/kg, 100 mg per Kg, urine 0 to 24 hours, bioassay
Protocol: The concentration of antibiotic in urine samples were bioassayed with the standard buffer at pH 7.0, and the urinary excretion in 24 hours were calculated.

in vivo = conditions: rat, po, 100 mg/kg
Protocol: Rats anesthetized with pentobarbital were fixed in supine position, and a polyethylene cannula was inserted into the bile duct. Bile samples were collected at 0 to 3, 3 to 6, and 6 to 24 hours after oral administration of 100 mg of the test drugs per kg. The antibiotic levels in the bile samples were assyed with the standard solutions prepared with M/15 phosphate buffer (pH 7.0) and the biliary excretion in 24 hours were calculated.

CCSC1=C(C(=O)O)N2C(=O)C(NC(=O)/C(=N\OCC(=O)O)c3nsc(N)n3)C2SC1 (stereo not drawn) [(4), 7-[2-(5-amino-1,2,4-thiadiazol-3-yl)-2-carboxymethoxyiminoacetamido]-3-ethylthio-3-cephem-4-carboxylic acid (syn isomer)]
MIC [1]: 1.56 µg/mL (≈ 3.19 µM) | MIC [2]: 0.78 µg/mL (≈ 1.6 µM) | MIC (Proteus mirabilis 18): 0.2 µg/mL (≈ 0.409 µM) | MIC (Escherichia coli 31): 0.2 µg/mL (≈ 0.409 µM) | MIC (Klebsiella pneumoniae 20): 0.39 µg/mL (≈ 0.798 µM)

CSC1=C(C(=O)O)N2C(=O)C(NC(=O)/C(=N\OCC(=O)O)c3csc(N)n3)C2SC1 (stereo not drawn) [Compound (1), 7-[2-(2-aminothiazol-4-yl)-2-carboxymethoxyiminoacetamido]-3-methylthio-3-cephem-4-carboxylic acid (syn isomer)]
dose excreted at 24 h [3]: 51.6% | MIC [1]: 1.56 µg/mL (≈ 3.29 µM) | MIC [2]: 0.39 µg/mL (≈ 0.824 µM) | MIC (Proteus mirabilis 18): 0.05 µg/mL (≈ 0.106 µM) | MIC (Escherichia coli 31): 0.2 µg/mL (≈ 0.422 µM) | MIC (Klebsiella pneumoniae 20): 0.1 µg/mL (≈ 0.211 µM) | dose excreted at 24 h (in vivo): 41.1%

CCSC1=C(C(=O)O)N2C(=O)C(NC(=O)/C(=N\OCC(=O)O)c3csc(N)n3)C2SC1 (stereo not drawn) [Compound (2), 7-[2-(2-aminothiazol-4-yl)-2-carboxymethoxyiminoacetamido]-3-ethylthio-3-cephem-4-carboxylic acid (syn isomer)]
dose excreted at 24 h [3]: 19.4% | MIC [1]: 3.13 µg/mL (≈ 6.42 µM) | MIC [2]: 0.78 µg/mL (≈ 1.6 µM) | MIC (Proteus mirabilis 18): 0.025 µg/mL (≈ 0.0513 µM) | MIC (Escherichia coli 31): 0.2 µg/mL (≈ 0.41 µM) | MIC (Klebsiella pneumoniae 20): 0.1 µg/mL (≈ 0.205 µM) | dose excreted at 24 h (in vivo): 32.2%

CCSC1=C(C(=O)O)N2C(=O)C(NC(=O)/C(=N\OCC(=O)O)c3nc(N)sc3Cl)C2SC1 (stereo not drawn) [Compound (3), 7-[2-(2-amino-5-chlorothiazol-4-yl)-2-carboxymethoxyiminoacetamido]-3-ethylthio-3-cephem-4-carboxylic acid (syn isomer)]
MIC [1]: 1.56 µg/mL (≈ 2.99 µM) | MIC [2]: 0.1 µg/mL (≈ 0.192 µM) | MIC (Proteus mirabilis 18): 0.05 µg/mL (≈ 0.0958 µM) | MIC (Escherichia coli 31): 0.2 µg/mL (≈ 0.383 µM) | MIC (Klebsiella pneumoniae 20): 0.2 µg/mL (≈ 0.383 µM)

CSC1=C(C(=O)O)N2C(=O)C(NC(=O)/C(=N\OCC(=O)O)c3cscn3)C2SC1 (stereo not drawn) [Test Compound (3), 7-[2-(4-thiazolyl)-2-carboxymethoxyiminoacetamido]-3-methylthio-3-cephem-4-carboxylic acid (syn isomer)]
dose excreted at 24 h [3]: 48.6% | dose excreted at 24 h (in vivo): 25.5%
